Measured values taken from publication PMC3465084 (Journal of medicinal chemistry, 2012).

Columns and labels:
J774 murine macrophages = experiment: CD36 Macrophage Receptor Binding Competition Assay; conditions: competition with OxLDL binding
CD36 scavenger receptor = experiment: Competition for binding of CuOxLDL to the CD36 scavenger receptor; conditions: Figure S1, Supporting Information
mAb E06 = experiment: Binding of mAb E06 to compound 9; conditions: Figure S2, Supporting Information
[1] = Stability in aqueous solution; format: physicochemical
Water solubility = format: physicochemical
macrophages = conditions: at the concentrations used, even at room temperature for up to 72 hours; cell number or protein content, time course studies of cell function (data not shown)

CCCCCCCCCCCCCCCC(=O)OC[C@H](COP(=O)([O-])OCC[N+](C)(C)C)OC(=O)CCCCN(C)CCCC[C@H](NC(=O)[C@@H](NC(=O)CNC(=O)[C@@H](NC(C)=O)[C@@H](C)O)[C@@H](C)O)C(=O)NCC(=O)NCC(=O)O [Compound 9, (4S,10S,13S,25R)-13-((2-((carboxymethyl)amino)-2-oxoethyl)carbamoyl)-4,10-bis((R)-1-hydroxyethyl)-18-methyl-2,5,8,11,23-pentaoxo-25-((palmitoyloxy)methyl)-24-oxa-3,6,9,12,18-pentaazahexacosan-26-yl-(2-(trimethylammonio)-ethyl) phosphate]
binding to macrophage scavenger receptors (in words) (J774 murine macrophages): binds to macrophage scavenger receptors | competition for the binding of CuOxLDL to the CD36 scavenger receptor (in words) (CD36 scavenger receptor): competes with high affinity | binding of mAb E06 (in words) (mAb E06): specifically binds | stability in aqueous solution (in words) [1]: stable | water solubility (in words) (Water solubility): water soluble | impact on viability of macrophages (macrophages): no impact
